The values below come from patent publication US7834048B2, “Azabicycloheptyl compounds suitable for treating disorders that respond to modulation of the dopamine D3 receptor” (Abbott GmbH & Co. KG, priority 2004, dated 2010).

The target in experiment [1] is T1, human dopamine D3 receptors (Homo sapiens, UniProt P35462).
T1 construct: expressed in transfected cells
In words: Dopamine D3 receptor binding, [125I]-iodosulpride displacement, HEK-293 membranes. To be noted: for Ki(D2)*/Ki(D3)*: selectivity, ratio of receptor binding constants D2L vs D3; for Ki: receptor binding constant, membranes of HEK-293 cells, 0.1 nM [125I]-iodosulpride, 25° C., 60 minutes. The protocol: (§1) The substance to be tested was either dissolved in methanol/Chremophor® (BASF-AG) or in dimethyl sulfoxide and then diluted with water to the desired concentration.
(§2) Each assay mixture was run in triplicate.
The incubation buffer contained 50 mM tris, 120 mM NaCl, 5 mM KCl, 2 mM CaCl2, 2 mM MgCl2 and 0.1% bovine serum albumin, 10 μM […] and 0.1% ascorbic acid (prepared fresh daily). The buffer was adjusted to pH 7.4 with HCl.
(§3) After having been incubated at 25° C. for 60 minutes, the assay mixtures were filtered through a Whatman GF/B glass fiber filter under vacuum using a cell collecting device. The filters were transferred to scintillation viols using a filter transfer system. After 4 ml of Ultima Gold® (Packard) have been added, the samples were shaken for one hour and the radioactivity was then counted in a Beta-Counter (Packard, Tricarb 2000 or 2200CA). The cpm values were converted into dpm using a standard quench series and the program belonging to the instrument.
(§4) The inhibition curves were analyzed by means of iterative nonlinear regression analysis using the Statistical Analysis System (SAS) which is similar to the “LIGAND” program described by Munson and Rodbard.
(§5) The results of the receptor binding studies are expressed as receptor binding constants Ki(D2) and Ki(D3), respectively, as herein before described, and given in table 1.

Experiment [2] has as its target T2, human dopamine D2L receptors (long isoform) (Homo sapiens, UniProt P14416).
T2 construct: expressed in transfected cells
Description: Dopamine D2L receptor binding, [125I]iodospiperone displacement, HEK-293 membranes. To be noted: receptor binding constant; membranes of HEK-293 cells, 0.01 nM [125I]iodospiperone, 25° C., 60 minutes; read-out: Ki(D2)*. The protocol:
as §1, §2
The incubation buffer contained 50 mM tris, 120 mM NaCl, 5 mM KCl, 2 mM CaCl2, 2 mM MgCl2 and 0.1% bovine serum albumin. The buffer was adjusted to pH 7.4 with HCl.
as §3, §4, §5

Each structure is given as a SMILES string.

T1 sequence (P35462 whole entry): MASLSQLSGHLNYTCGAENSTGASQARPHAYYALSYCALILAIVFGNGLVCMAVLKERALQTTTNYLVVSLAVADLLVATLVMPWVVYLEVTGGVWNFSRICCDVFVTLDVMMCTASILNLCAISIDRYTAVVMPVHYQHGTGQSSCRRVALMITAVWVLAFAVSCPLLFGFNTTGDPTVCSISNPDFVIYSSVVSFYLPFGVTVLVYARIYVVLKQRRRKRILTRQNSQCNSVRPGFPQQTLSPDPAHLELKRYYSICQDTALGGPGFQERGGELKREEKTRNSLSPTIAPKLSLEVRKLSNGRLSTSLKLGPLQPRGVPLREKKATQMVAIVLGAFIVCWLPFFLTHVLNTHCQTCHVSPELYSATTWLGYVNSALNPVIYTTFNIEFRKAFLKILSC
T2 sequence (P14416 whole entry, canonical isoform): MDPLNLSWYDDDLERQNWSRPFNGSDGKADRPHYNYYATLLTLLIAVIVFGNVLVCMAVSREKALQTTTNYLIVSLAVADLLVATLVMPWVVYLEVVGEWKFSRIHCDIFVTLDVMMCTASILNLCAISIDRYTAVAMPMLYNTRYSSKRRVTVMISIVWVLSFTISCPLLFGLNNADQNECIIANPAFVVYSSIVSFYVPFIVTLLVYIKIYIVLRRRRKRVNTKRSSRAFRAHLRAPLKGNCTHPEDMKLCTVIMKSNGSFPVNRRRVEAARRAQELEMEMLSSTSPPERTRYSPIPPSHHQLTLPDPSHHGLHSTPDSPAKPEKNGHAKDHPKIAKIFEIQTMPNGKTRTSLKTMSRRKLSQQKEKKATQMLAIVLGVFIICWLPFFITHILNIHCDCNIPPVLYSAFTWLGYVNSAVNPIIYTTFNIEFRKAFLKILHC

For `CCCN1C[C@H]2C[C@H](c3ccc(NS(=O)(=O)c4ccc(C(C)C)cc4)cc3)[C@H]2C1` (relative stereo) [Example 3, 4-Isopropyl-N-[4-(exo-3-propyl-3-aza-bicyclo[3.2.0]hept-6-yl)-phenyl]-benzenesulfonamide], in experiment [1], the “Ki(D2)*/Ki(D3)*” value was determined as 45.

As to `CCCN1C[C@H]2C[C@@H](c3ccc(NS(=O)(=O)c4ccc(C(C)C)cc4)cc3)[C@H]2C1` (relative stereo) [Example 16, endo-4-Isopropyl-N-[4-(3-propyl-3-aza-bicyclo[3.2.0]hept-6-yl)-phenyl]-benzenesulfonamide], the Ki in experiment [2] came to 208 nM. In addition, in experiment [1], the Ki came to 5.3 nM and the “Ki(D2)*/Ki(D3)*” value amounted to 39.

`CCCN1C[C@@H]2C[C@@H](c3ccc(NS(=O)(=O)c4ccc(C(C)C)cc4)cc3)[C@@H]2C1` [Example 1, 4-Isopropyl-N-[4-((1R,5S,6R)-3-propyl-3-aza-bicyclo[3.2.0]hept-6-yl)-phenyl]-benzenesulfonamide]: the Ki in experiment [2] is 12.9 nM; in experiment [1], 0.47 nM. For the same molecule, the “Ki(D2)*/Ki(D3)*” value in experiment [1] came to 28.

Take `CCCN1C[C@@H]2C[C@@H](c3ccc(NS(=O)(=O)c4ccc(OC(F)(F)F)cc4)cc3)[C@@H]2C1` [Example 4, N-[4-((1R,5S,6R)-3-Propyl-3-aza-bicyclo[3.2.0]hept-6-yl)-phenyl]-4-trifluoromethoxy-benzenesulfonamide]: the Ki stood at 66.6 nM in experiment [2] and 5.43 nM in experiment [1]. In addition, the “Ki(D2)*/Ki(D3)*” value in experiment [1] was 12.

Regarding `CCCN1C[C@@H]2C[C@@H](c3ccc(NS(=O)(=O)c4ccc(C(F)(F)F)cc4)cc3)[C@@H]2C1` [Example 5, N-[4-((1R,5S,6R)-3-Propyl-3-aza-bicyclo[3.2.0]hept-6-yl)-phenyl]-4-trifluoromethyl-benzenesulfonamide], the Ki turned out to be 72.1 nM in experiment [2] and 3.15 nM in experiment [1]. For the same molecule, in experiment [1], the “Ki(D2)*/Ki(D3)*” value is 23.

`C=CCN1C[C@@H]2C[C@@H](c3ccc(NS(=O)(=O)c4ccc(OC(F)(F)F)cc4)cc3)[C@@H]2C1` [Example 6, N-[4-((1R,5S,6R)-3-Allyl-3-aza-bicyclo[3.2.0]hept-6-yl)-phenyl]-4-trifluoromethoxy-benzenesulfonamide]: the Ki in experiment [2] is 47 nM. Also, in experiment [1], the Ki came out at 4.13 nM and the “Ki(D2)*/Ki(D3)*” value is 11.

For the molecule `CCCN1C[C@@H]2C[C@@H](c3ccc(NS(=O)(=O)c4ccc(Br)cc4)cc3)[C@@H]2C1` [Example 7, 4-Bromo-N-[4-((1R,5S,6R)-3-propyl-3-aza-bicyclo[3.2.0]hept-6-yl)-phenyl]-benzenesulfonamide], the Ki in experiment [2] came out at 31.7 nM. Further, in experiment [1], the Ki was determined as 1.31 nM and the “Ki(D2)*/Ki(D3)*” value came to 24.

`CCCN1C[C@@H]2C[C@@H](c3ccc(NS(=O)(=O)c4ccc(SC(F)(F)F)cc4)cc3)[C@@H]2C1` [Example 8, N-[4-((1R,5S,6R)-3-Propyl-3-aza-bicyclo[3.2.0]hept-6-yl)-phenyl]-4-trifluoromethylsulfanyl-benzenesulfonamide]: the figures for the Ki in experiment [2] and in experiment [1] were 30.2 nM and 1.81 nM, respectively. For the same molecule, the “Ki(D2)*/Ki(D3)*” value in experiment [1] came to 17.

In the case of `CCCN1C[C@@H]2C[C@@H](c3ccc(NS(=O)(=O)c4ccc(N5CCC[C@@H]5COC)cc4)cc3)[C@@H]2C1` [Example 9, 4-((R)-2-Methoxymethyl-pyrrolidin-1-yl)-N-[4-((1R,5S,6R)-3-propyl-3-azabicyclo[3.2.0]hept-6-yl)-phenyl]-benzenesulfonamide], the Ki in experiment [2] was determined as 54.8 nM; in experiment [1], 4.08 nM. Besides, in experiment [1], the “Ki(D2)*/Ki(D3)*” value is recorded as 13.

With `CCCN1C[C@@H]2C[C@@H](c3ccc(NS(=O)(=O)c4ccc(N5CCCC5)cc4)cc3)[C@@H]2C1` [Example 10, N-[4-((1R,5S,6R)-3-Propyl-3-aza-bicyclo[3.2.0]hept-6-yl)-phenyl]-4-pyrrolidin-1-yl-benzenesulfonamide], the Ki in experiment [2] was 32 nM. For the same molecule, in experiment [1], the Ki turned out to be 1.98 nM and the “Ki(D2)*/Ki(D3)*” value was found to be 16.

As for `CCCN1C[C@@H]2C[C@@H](c3ccc(NS(=O)(=O)c4ccc(N5CCC5)cc4)cc3)[C@@H]2C1` [Example 11, 4-Azetidin-1-yl-N-[4-((1R,5S,6R)-3-propyl-3-aza-bicyclo[3.2.0]hept-6-yl)-phenyl]-benzenesulfonamide], the Ki in experiment [2] was determined as 56.7 nM. Also, in experiment [1], the Ki was 2.19 nM and the “Ki(D2)*/Ki(D3)*” value came to 26.

With `CCCN1C[C@@H]2C[C@@H](c3ccc(NS(=O)(=O)c4ccc(-c5ccco5)cc4)cc3)[C@@H]2C1` [Example 12, N-[4-((1R,5S,6R)-3-Propyl-3-aza-bicyclo[3.2.0]hept-6-yl)-phenyl]-4-furan-2-yl-benzenesulfonamide], the Ki in experiment [2] amounted to 37.6 nM. Also, in experiment [1], the Ki came to 4.46 nM and the “Ki(D2)*/Ki(D3)*” value turned out to be 8.

Regarding `CCCN1C[C@@H]2C[C@@H](c3ccc(NS(=O)(=O)c4ccc(-c5cccs5)cc4)cc3)[C@@H]2C1` [Example 13, N-[4-((1R,5S,6R)-3-Propyl-3-aza-bicyclo[3.2.0]hept-6-yl)-phenyl]-4-thiophen-2-yl-benzenesulfonamide], the Ki in experiment [2] stood at 13.1 nM. In experiment [1], the Ki turned out to be 1.32 nM and the “Ki(D2)*/Ki(D3)*” value amounted to 10.

Consider `CCCN1C[C@H]2C[C@H](c3ccc(NS(=O)(=O)c4ccc(C(C)C)cc4)cc3)[C@H]2C1` [Example 14, 4-Isopropyl-N-[4-((1S,5R,6S)-3-propyl-3-aza-bicyclo[3.2.0]hept-6-yl)-phenyl]-benzenesulfonamide], for which, in experiment [1], the “Ki(D2)*/Ki(D3)*” value amounted to 8.

The Ki is the dissociation constant of the complex between target and ligand, obtained from inhibition or displacement.
